Experiments:
[1] = molecular target: Ba/F3 cells expressing Tel-FMS (Homo sapiens, UniProt P07333); details: read-out: IC50 in BaF3/Tel-FMS cellular assay
Description: (§1) Compounds of the invention are tested for their antiproliferative effect on Ba/F3 cells expressing either Tel-TrkA, Tel-TrkB or Tel-TrkC and an additional panel of 34 selected diverse kinases activated by fusion to the dimerizing partners Bcr or Tel (Abl, AlK, BMX, EphA3, EphB2, FGFR2, FGFR3, FGFR4, FGR, FLT1, FLT3, FLT4, FMS, IGF1R, InsR, JAK1, JAK2, JAK3, KDR, Kit, Lck, Lyn, MER, MET, PDGFRb, RET, RON, Ros-1, Src, Syk, TIE2, TYK2, Tie1, ZAP70). The antiproliferative effect of these compounds on the different cell lines and on the non transformed cells were tested at 12 different concentrations of 3-fold serially diluted compounds in 384 well plates as described above (in media lacking IL3). The IC50 values of the compounds the different cell lines were determined from the dose response curves obtained as describe above.

[2] = molecular target: Ba/F3 cells transformed with Tel c-Kit (Homo sapiens, UniProt P10721); details: read-out: IC50 in BaF3/Tel-KIT cellular assay
Description: as §1

[3] = molecular target: Ba/F3 cells transformed with human Tel-TrkA (Homo sapiens, UniProt P04629); details: read-out: IC50 in BaF3/Tel-TRKA cellular assay
Description: as §1

FLT3 = FLT3 (Homo sapiens (Human), UniProt P36888); assay: Caliper LabChip mobility-shift kinase assay, single point; assay type: biochemical; details: at a concentration of 5 μM
Description: (§2) In addition, compounds of Formula (I) were assessed for their ability to inhibit individual kinases utilizing Caliper Life Sciences' proprietary LabChip™ technology. A partial, non-limiting list of kinases includes: Syk, ZAP70, KDR, FMS, FLT3, c-Kit, RET, TrkA, TrkB, TrkC, IGR-1R, Alk and c-FMS kinases. The off-chip incubation mobility-shift kinase assay uses a microfluidic chip to measure the conversion of a fluorescent peptide substrate to a phosphorylated product. The reaction mixture, from a microtiter plate well, is introduced through a capillary sipper onto the chip, where the nonphosphorylated substrate and phosphorylated product are separated by electrophoresis and detected via laser induced fluorescence. […] The phosphorylated product migrates through the chip faster than the non-phosphorylated substrate, and signals from the two forms of the peptide appear as distinct peaks. Caliper's data analysis software (HTSWA) determines peak heights, from which the ratio of product to the peak sum P/(P+S) and percent (%) conversion is calculated. This value is used to compare compound wells to control wells present on the plate, and thereby determine the % inhibition values for the compound.
(§3) Generally, 12 μL of enzyme buffer containing purified kinase (various amount; various suppliers), 100 mM HEPES, pH 7.5, 1 mM DTT (Calbiochem, 2333153), 10 mM MgCl2 (Sigma, M-1028) or 10 mM MnCl2 (Sigma, M-1787) (assay specific), and 0.002% Brij-35 (Sigma, B4184) are added to each well. Compound and enzyme are allowed to pre-incubate for 15 minutes. 12 μL of peptide/ATP buffer containing 100 mM HEPES, pH 7.5, 1.5 μM fluorescein-labeled peptide (specific to kinase of interest), ATP (at KM apparent, Sigma, A9187), and 0.002% Brij-35 is then added to each well to initiate the reaction. The final concentration of DMSO in the well is 4%. Generally, reactions are incubated for 1 to 1.5 hours at room temperature to obtain adequate conversion of peptide to phosphorylated product in the linear range of the reaction. Reactions are terminated with the addition of 45 μL of Stop Buffer (containing 20 mM EDTA). Plates are then read on the LabChip 3000 using a 12-sipper LabChip. % conversion values and % inhibition values are obtained as described and IC50 curves of compounds are generated using GraphPad Prism Version 4 or 5.01, or XLfit Version 4.3.2. When using GraphPad Prism, a nonlinear curve fit using the sigmoidal dose response—variable slope fit was used to graph IC50 curves and determine IC50 values and hillslopes. When using XLfit, Fit Model 205 (4-Parameter Logistic Model) is used to generate and fit the IC50 curve.

TRKA = TRKA (Homo sapiens (Human), UniProt P04629); assay: as above; assay type: biochemical; details: at a concentration of 5 μM
Description: as §2, §3

Abl = Abl (Homo sapiens (Human), UniProt P00519); assay: as above; assay type: biochemical; details: at a concentration of 5 μM
Description: as §2, §3

FMS = FMS (Homo sapiens (Human), UniProt P07333); assay: as above; assay type: biochemical; details: at a concentration of 5 μM
Description: as §2, §3

RET = RET (Homo sapiens (Human), UniProt P07949); assay: as above; assay type: biochemical; details: at a concentration of 5 μM
Description: as §2, §3

KDR = KDR (Homo sapiens (Human), UniProt P35968); assay: as above; assay type: biochemical; details: at a concentration of 5 μM
Description: as §2, §3

CHK2 = CHK2 (Homo sapiens (Human), UniProt O96017); assay: as above; assay type: biochemical; details: at a concentration of 5 μM
Description: as §2, §3

JAK2 = JAK2 (Homo sapiens (Human), UniProt O60674); assay: as above; assay type: biochemical; details: at a concentration of 5 μM
Description: as §2, §3

[4] = molecular target: Ba/F3 cells transformed with Tel-KDR (Homo sapiens, UniProt P35968); details: read-out: IC50 in BaF3/Tel-KDR cellular assay
Description: (§4) Luciferase expressing Ba/F3 murine pro-B cells are transformed with Tel-Syk, Tel-Zap70 or Tel-KDR. Cells are maintained in RPMI/10% fetal calf serum (RPMI/FCS) supplemented with penicillin 50 μg/mL, streptomycin 50 μg/mL and L-glutamine 200 mM. Untransformed Ba/F3 cells are similarly maintained with the addition of murine recombinant IL3. Cells are dispensed into 384-well format plate at 5000 cell/well in 50 μL of culture medium. Compounds of the invention are dissolved and diluted in dimethylsufoxide (DMSO). Twelve points 1:3 serial dilutions are made into DMSO to create concentrations gradient ranging from 10 mM to 0.05 μM. Cells are added with 50 nL of diluted compounds and incubated for 48 hours in cell culture incubator. Luminiscent signal is measured following the addition of Bright Glo® (Promega) luciferase substrate. IC50 values are calculated by linear regression analysis of the percentage inhibition of each compound at 12 concentrations.
as §1

[5] = molecular target: Ba/F3 cells transformed with Tel-Syk (Homo sapiens, UniProt P43405); details: read-out: IC50 in BaF3/Tel-Syk cellular assay
Description: as §4, §1

[6] = molecular target: Ba/F3 cells expressing Tel-FLT3 (Homo sapiens, UniProt P36888); details: read-out: IC50 in BaF3/Tel-FLT3 cellular assay
Description: as §1

Sequence of Ba/F3 cells transformed with Tel c-Kit (P10721 26-976 limits assumed, change not shown): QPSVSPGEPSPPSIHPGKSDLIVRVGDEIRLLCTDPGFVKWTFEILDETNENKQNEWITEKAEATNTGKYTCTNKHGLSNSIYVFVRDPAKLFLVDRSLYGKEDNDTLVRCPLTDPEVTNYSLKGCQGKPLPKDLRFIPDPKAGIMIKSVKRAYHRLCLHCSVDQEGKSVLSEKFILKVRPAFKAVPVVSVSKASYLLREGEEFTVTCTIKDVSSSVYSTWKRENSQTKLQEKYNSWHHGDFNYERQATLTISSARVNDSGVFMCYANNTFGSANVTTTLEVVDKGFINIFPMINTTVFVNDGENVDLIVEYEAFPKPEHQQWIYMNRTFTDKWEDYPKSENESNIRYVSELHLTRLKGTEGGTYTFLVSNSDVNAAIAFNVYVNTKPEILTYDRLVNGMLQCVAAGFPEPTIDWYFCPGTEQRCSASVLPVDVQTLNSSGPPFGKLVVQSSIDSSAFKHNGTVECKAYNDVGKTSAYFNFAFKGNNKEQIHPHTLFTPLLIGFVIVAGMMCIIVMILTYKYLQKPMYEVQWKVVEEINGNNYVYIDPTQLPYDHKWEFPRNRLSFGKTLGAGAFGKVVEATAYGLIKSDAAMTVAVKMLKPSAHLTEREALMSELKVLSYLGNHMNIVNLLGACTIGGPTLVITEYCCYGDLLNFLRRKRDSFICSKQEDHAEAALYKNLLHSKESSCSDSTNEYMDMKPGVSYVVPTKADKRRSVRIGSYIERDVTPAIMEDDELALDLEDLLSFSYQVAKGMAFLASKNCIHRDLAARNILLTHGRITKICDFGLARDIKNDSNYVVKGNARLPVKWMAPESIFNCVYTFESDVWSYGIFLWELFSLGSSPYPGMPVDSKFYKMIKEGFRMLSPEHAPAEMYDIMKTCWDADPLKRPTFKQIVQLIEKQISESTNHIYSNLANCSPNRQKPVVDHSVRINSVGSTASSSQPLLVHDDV
Sequence of Ba/F3 cells transformed with Tel-KDR (P35968 20-1356 limits assumed, change not shown): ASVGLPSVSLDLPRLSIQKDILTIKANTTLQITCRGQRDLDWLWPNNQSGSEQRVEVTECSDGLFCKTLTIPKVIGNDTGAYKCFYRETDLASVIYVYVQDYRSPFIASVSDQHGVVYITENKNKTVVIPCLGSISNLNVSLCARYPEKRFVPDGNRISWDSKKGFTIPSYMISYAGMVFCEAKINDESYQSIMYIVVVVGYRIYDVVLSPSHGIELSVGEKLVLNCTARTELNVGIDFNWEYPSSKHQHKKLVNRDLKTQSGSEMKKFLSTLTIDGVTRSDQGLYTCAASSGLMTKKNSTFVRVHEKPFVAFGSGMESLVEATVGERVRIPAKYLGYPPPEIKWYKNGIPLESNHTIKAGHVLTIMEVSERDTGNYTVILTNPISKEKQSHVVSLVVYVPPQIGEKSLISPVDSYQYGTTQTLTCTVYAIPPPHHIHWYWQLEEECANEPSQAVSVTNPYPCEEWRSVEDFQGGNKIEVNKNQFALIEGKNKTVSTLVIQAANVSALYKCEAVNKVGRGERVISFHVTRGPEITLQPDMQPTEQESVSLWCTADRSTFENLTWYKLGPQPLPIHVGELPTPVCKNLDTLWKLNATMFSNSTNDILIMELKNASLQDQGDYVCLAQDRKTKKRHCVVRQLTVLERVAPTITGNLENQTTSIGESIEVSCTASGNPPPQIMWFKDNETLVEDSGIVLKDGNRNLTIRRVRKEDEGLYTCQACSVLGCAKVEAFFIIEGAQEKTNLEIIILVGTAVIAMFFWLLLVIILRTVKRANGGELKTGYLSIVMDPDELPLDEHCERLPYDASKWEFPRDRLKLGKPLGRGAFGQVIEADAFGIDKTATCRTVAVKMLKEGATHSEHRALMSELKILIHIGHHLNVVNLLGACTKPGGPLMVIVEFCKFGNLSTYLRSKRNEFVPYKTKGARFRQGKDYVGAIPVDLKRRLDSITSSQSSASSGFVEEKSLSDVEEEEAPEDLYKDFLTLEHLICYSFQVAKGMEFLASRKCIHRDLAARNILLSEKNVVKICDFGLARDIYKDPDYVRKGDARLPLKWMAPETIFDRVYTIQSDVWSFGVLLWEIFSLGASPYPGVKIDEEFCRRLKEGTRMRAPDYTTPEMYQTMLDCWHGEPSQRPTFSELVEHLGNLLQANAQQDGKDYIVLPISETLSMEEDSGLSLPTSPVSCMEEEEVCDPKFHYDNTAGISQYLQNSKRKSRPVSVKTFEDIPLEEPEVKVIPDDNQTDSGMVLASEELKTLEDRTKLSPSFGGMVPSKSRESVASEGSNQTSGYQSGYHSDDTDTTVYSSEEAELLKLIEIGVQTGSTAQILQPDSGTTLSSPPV
Sequence of Ba/F3 cells expressing Tel-FMS (P07333 20-972 limits assumed, stated change not applied): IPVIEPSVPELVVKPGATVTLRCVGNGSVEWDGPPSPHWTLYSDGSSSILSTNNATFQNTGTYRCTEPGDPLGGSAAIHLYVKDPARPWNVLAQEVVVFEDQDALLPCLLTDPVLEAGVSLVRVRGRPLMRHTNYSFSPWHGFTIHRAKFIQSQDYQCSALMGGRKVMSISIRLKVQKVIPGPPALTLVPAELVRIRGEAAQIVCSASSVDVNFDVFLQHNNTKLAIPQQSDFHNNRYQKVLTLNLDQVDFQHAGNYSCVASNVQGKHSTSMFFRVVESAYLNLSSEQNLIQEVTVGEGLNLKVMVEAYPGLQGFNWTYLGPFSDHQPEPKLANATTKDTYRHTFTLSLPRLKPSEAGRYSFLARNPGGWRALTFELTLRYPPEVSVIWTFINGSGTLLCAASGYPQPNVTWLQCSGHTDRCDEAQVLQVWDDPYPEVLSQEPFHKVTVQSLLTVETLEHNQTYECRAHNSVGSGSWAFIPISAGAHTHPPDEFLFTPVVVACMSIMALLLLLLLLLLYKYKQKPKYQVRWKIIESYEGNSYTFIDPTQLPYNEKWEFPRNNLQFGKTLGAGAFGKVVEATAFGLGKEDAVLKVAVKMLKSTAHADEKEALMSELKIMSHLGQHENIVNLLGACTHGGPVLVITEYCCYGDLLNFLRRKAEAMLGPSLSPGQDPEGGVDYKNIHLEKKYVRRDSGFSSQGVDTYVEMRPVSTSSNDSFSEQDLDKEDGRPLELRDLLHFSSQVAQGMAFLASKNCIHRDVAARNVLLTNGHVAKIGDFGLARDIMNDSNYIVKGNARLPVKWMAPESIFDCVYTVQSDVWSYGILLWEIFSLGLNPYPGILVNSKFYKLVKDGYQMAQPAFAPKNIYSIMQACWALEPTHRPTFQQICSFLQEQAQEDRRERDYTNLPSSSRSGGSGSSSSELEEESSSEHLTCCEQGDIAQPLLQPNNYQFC
Sequence of Ba/F3 cells transformed with human Tel-TrkA (P04629 33-796 limits assumed, change not shown): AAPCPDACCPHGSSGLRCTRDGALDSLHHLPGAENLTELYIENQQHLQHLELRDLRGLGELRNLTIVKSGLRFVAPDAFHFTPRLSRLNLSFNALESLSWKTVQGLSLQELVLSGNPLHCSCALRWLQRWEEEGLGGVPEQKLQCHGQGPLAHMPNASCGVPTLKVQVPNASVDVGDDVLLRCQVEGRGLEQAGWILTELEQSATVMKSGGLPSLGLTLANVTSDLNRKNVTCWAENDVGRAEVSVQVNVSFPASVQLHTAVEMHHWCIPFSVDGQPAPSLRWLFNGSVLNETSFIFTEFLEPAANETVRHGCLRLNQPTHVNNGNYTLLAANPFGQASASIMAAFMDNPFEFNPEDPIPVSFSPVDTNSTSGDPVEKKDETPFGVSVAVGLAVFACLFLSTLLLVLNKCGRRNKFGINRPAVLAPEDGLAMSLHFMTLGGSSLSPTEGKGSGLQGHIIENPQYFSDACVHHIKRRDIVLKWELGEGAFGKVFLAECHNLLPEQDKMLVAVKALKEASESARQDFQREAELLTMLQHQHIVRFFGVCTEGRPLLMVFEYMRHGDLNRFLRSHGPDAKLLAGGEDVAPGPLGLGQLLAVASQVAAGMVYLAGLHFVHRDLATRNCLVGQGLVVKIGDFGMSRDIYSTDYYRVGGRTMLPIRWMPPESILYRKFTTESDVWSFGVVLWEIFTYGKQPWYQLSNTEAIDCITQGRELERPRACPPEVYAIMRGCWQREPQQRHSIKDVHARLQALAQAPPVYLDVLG
Sequence of CHK2 (O96017 whole entry, species assumed): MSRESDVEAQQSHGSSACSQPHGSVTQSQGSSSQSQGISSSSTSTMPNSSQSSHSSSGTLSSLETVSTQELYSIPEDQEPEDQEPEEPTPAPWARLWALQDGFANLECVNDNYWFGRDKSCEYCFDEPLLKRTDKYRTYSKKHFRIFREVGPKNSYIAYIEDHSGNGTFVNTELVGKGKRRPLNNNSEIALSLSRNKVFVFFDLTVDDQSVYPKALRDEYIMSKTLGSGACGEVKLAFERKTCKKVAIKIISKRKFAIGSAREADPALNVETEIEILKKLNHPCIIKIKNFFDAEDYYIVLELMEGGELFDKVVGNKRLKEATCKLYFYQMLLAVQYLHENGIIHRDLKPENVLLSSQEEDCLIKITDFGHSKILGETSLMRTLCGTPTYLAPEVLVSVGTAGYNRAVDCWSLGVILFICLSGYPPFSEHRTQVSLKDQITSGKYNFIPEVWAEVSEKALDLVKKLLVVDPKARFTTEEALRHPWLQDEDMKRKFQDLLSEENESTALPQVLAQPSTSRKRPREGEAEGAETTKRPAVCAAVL
Sequence of KDR (P35968 20-1356, species assumed): as the sequence (P35968 20-1356 limits assumed, change not shown) above
Sequence of FMS (P07333 20-972, species assumed): as the sequence (P07333 20-972 limits assumed, stated change not applied) above
Sequence of TRKA (P04629 33-796, species assumed): as the sequence (P04629 33-796 limits assumed, change not shown) above

SMILES: O=c1[nH]ccc2cc(-c3ccccc3)nc(Nc3ccc(N4CCOCC4)cc3)c12 [No 11, 8-(4-morpholinophenylamino)-6-phenyl-2,7-naphthyridin-1(2H)-one]
- IC50 [1]: 20 nM
- IC50 [2]: 20 nM
- IC50 [3]: 70 nM
- inhibition at 5 µM (FLT3): 100%
- inhibition at 5 µM (TRKA): 74%
- inhibition at 5 µM (Abl): 100%
- inhibition at 5 µM (FMS): 84%
- inhibition at 5 µM (RET): 99%
- inhibition at 5 µM (KDR): 96%
- inhibition at 5 µM (CHK2): 94%
- inhibition at 5 µM (JAK2): 96%
- IC50 [4]: 270 nM
- IC50 [5]: 150 nM

SMILES: CCN1CCN(c2cc3cc[nH]c(=O)c3c(Nc3ccc(N4CCOCC4)cc3)n2)CC1 [No 83, 8-(4-morpholinophenylamino)-6-(4-ethylpiperazin-1-yl)-2,7-naphthyridin-1(2H)-one]
- IC50 [1]: 500 nM
- IC50 [2]: 1220 nM
- IC50 [3]: 490 nM
- IC50 [6]: 530 nM
- IC50 [4]: 5000 nM
- IC50 [5]: 120 nM
